Reference: patent publication US9975906B2, “Tricyclic heterocycle derivatives having HIV replication inhibitory effect” (Shionogi & Co., Ltd., priority 2014, dated 2018)

Legend:
Format in all cases: in vitro ADME
CYP2D6 = target: T1, CYP2D6 (Homo sapiens, UniProt P10635); assay: CYP Inhibition Assay (dextromethorphan O-demethylation); conditions: pooled human hepatic microsome, 5 μmol/L dextromethorphan, 15 minutes, 37° C.
T1 construct: enzyme, pooled human hepatic microsome 0.2 mg protein/mL; from tissue
Description: (§1) Using commercially available pooled human hepatic microsome, and employing, as markers, 7-ethoxyresorufin O-deethylation (CYP1A2), tolbutamide methyl-hydroxylation (CYP2C9), mephenytoin 4'-hydroxylation (CYP2C19), dextromethorphan O-demethylation (CYP2D6), and terfenadine hydroxylation (CYP3A4) as typical substrate metabolism reactions of human main five CYP enzyme forms (CYP1A2, 2C9, 2C19, 2D6, 3A4) an inhibitory degree of each metabolite production amount by a test compound was assessed. […] After the centrifugation at 3000 rpm for 15 minutes, resorufin (CYP1A2 metabolite) in the supernatant was quantified by a fluorescent multilabel counter and tolbutamide hydroxide (CYP2C9 metabolite), mephenytoin 4' hydroxide (CYP2C19 metabolite), dextrorphan (CYP2D6 metabolite), and terfenadine alcohol (CYP3A4 metabolite) were quantified by LC/MS/MS. A reaction system containing only DMSO which is a solvent for dissolving a drug was adopted as a control (100%), and the remaining activity (%) was calculated, then IC50 was calculated by reverse presumption with a logistic model using a concentration and an inhibition rate.

CYP3A4 = target: T2, CYP3A4 (Homo sapiens, UniProt P08684); assay: CYP3A4 (MDZ) MBI Test; conditions: pooled human liver microsomes, 10 μmol/L MDZ, pre-reaction 0 or 30 minutes
T2 construct: enzyme, pooled human hepatic microsome 0.2 mg protein/mL; from tissue
Description: CYP3A4 (MDZ) MBI test is a test of investigating mechanism based inhibition (MBI) ability on CYP3A4 inhibition of a compound by enhancement of a metabolism reaction. CYP3A4 inhibition is evaluated using 1-hydroxylation reaction of midazolam (MDZ) by pooled human liver microsomes as an index.
The reaction conditions are as follows: substrate, 10 μmol/L MDZ; pre-reaction time, 0 or 30 minutes; substrate reaction time, 2 minutes; reaction temperature, 37° C.; protein content of pooled human liver microsomes, at pre-reaction time 0.5 mg/mL, at reaction time 0.05 mg/mL (at 10-fold dilution); concentrations of the compound of the present invention, 1, 5, 10, 20 μmol/L (four points).
Pooled human liver microsomes in K-Pi buffer (pH 7.4) and a solution of the compound of the present invention as a pre-reaction solution were added to a 96-well plate at the composition of the pre-reaction. […] After centrifuged at 3000 rpm for 15 minutes, 1-hydroxymidazolam in the supernatant was quantified by LC/MS/MS.
The sample adding DMSO to a reaction system instead of a solution of the compound of the present invention is adopted as a control (100%) because DMSO is used as a solvent to dissolve the compound of the present invention. […] Shifted IC value is calculated as “IC of preincubation at 0 min/IC of preincubation at 30 min”. […]

[1] = Metabolism Stability Test; conditions: compound concentration 0.5 μmol/L, human liver microsomes, NADPH, 37° C., 30 minutes
Description: Commercially available pooled human hepatic microsomes and a test compound were reacted for a constant time, then a remaining rate was calculated by comparing a reacted sample and an unreacted sample, thereby a degree of metabolism of the test compound in liver was assessed. A reaction was performed (oxidative reaction) at 37° C. for 0 minute or 30 minutes in the presence of 1 mmol/L NADPH in 0.2 mL of a buffer (50 mmol/L Tris-HCl, pH 7.4, 150 mmol/L potassium chloride, 10 mmol/L magnesium chloride) containing 0.5 mg protein/mL of human liver microsomes. After the reaction, 50 μL of the reaction solution was added to 100 μL of a methanol/acetonitrile=1/1 (v/v), mixed and centrifuged at 3000 rpm for 15 minutes. The test compound in the supernatant was quantified by LC/MS/MS, and a remaining amount of the test compound after the reaction wad calculated, letting a compound amount at 0 minute reaction time to be 100%. Hydrolysis reaction was performed in the absence of NADPH and glucuronidation reaction was in the presence of 5 mM UDP-glucuronic acid in place of NADPH, followed by similar operations. (Result) The residual rate of the compound concentration 0.5 μmol/L in the oxidation reaction was shown below.

CYP2C19 = target: T3, CYP2C19 (Homo sapiens, UniProt P33261); assay: CYP Inhibition Assay (mephenytoin 4'-hydroxylation); conditions: pooled human hepatic microsome, 50 μmol/L S-mephenytoin, 15 minutes, 37° C.
T3 construct: enzyme, pooled human hepatic microsome 0.2 mg protein/mL; from tissue
Description: as §1

T3 sequence (P33261 whole entry): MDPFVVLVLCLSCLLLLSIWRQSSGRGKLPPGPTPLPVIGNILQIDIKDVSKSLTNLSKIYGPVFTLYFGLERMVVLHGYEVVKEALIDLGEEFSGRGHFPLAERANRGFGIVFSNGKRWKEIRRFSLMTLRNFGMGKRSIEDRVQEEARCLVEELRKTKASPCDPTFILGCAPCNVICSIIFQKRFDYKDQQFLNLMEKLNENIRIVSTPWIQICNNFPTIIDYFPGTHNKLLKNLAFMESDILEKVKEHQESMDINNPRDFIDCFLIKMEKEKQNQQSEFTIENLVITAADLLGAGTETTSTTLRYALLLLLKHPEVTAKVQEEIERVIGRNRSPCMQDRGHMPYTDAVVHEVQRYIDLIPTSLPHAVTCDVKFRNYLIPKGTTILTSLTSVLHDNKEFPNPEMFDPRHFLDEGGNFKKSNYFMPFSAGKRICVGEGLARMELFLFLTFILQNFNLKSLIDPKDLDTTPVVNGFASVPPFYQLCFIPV
T2 sequence (P08684 whole entry): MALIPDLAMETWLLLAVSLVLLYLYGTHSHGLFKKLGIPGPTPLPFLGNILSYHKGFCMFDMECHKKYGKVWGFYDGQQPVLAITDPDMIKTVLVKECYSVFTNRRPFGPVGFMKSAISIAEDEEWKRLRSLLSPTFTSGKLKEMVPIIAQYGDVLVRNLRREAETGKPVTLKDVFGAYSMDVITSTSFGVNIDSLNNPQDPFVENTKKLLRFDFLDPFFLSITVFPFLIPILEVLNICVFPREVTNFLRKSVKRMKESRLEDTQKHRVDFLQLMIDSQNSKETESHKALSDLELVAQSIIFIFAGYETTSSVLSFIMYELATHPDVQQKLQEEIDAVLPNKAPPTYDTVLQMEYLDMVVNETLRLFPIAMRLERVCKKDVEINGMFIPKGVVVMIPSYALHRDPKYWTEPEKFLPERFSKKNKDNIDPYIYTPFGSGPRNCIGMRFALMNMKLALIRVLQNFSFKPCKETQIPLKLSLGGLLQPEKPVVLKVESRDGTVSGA
T1 sequence (P10635 whole entry): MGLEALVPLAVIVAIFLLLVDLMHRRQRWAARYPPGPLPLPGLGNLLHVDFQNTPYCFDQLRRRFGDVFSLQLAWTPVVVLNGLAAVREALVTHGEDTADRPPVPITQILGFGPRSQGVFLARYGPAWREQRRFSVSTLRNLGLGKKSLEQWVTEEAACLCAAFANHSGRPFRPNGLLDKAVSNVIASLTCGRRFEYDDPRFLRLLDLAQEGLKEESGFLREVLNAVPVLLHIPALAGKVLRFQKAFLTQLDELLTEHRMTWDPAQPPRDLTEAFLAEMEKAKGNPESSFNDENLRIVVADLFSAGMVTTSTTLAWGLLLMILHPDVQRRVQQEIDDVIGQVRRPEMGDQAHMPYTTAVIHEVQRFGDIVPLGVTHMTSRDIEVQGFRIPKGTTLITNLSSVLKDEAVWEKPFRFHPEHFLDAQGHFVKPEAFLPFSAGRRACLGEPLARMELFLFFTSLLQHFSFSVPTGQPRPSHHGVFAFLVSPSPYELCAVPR

IC50 (CYP2D6): > 20 µM | residual rate in the oxidation reaction [1]: > 99.9% | IC50 (CYP2C19): > 20 µM
SMILES: Cc1ccc(-c2c([C@H](OC(C)(C)C)C(=O)O)c(C)c3c4c2cc(-c2ccnc(-c5ccc6c(cnn6C)c5)c2)n4CCN3CCN(C)C)cc1 [Compound I-034]
CYP3A4 (MDZ) MBI (shifted IC) (CYP3A4): (−) (When a shifted IC is 1.0 or less, this is defined as negative)
